According to paper PMC12295927, “Design, Synthesis, and Testing of 1,2,3-Triazolo-Quinobenzothiazine Hybrids for Cytotoxic and Immunomodulatory Activity” (International Journal of Molecular Sciences, 2025):

Tested on: AIFM2 gene
Test: RT-qPCR AIFM2 gene expression in HCT116
Format: cell-based, Human
Conditions: HCT116, 100 μM, 24 h, vs untreated control
Description: In each of the four compound groups: MJ1–MJ5, MJ6–MJ10, MJ11–MJ15, and MJ16–MJ20, one compound was selected based on the best IC50 value and a distinctive gene expression profile (BCL2, MDM2, AIFM2, IL6, IL8).
Gene expression studies used quantitative RT-qPCR to assess the effect of the tested quinobenzothiazines (MJ1–MJ20) on the expression of apoptosis-related genes (BCL2, AIFM2, MDM2) and pro-inflammatory cytokines (IL6, IL8) (Table 4).
BEAS-2B and HCT116 cells were seeded in 6-well plates at 2 × 10^5 cells per well and cultured in RPMI-1640 (BEAS-2B) or DMEM (HCT116) medium supplemented with 10% FBS and 1% penicillin/streptomycin at 37 °C, 5% CO2 and 95% humidity. After 24 h of incubation, the tested compounds were added at a concentration of 100 µM. After 24 h, the medium was removed from the cells, washed with PBS solution, 0.5 mL of trypsin was added per well and after 5 min it was neutralized with medium. […]
Total RNA was isolated from cells using the A&A Biotechnology Total RNA Mini kit according to the manufacturer’s protocol. RNA quality and quantity were assessed using a NanoDrop 2000 spectrophotometer at 260/280 nm. […]
The results were analyzed using the R = 2^−ΔΔCt method, which allows for determining the relative level of gene expression (R) compared to the control. […]

`Clc1ccc2c(c1)Sc1cc3ccccc3nc1N2Cc1cn(CSc2ccccc2)nn1` [MJ15, 9-Chloro-6-((1-((phenylthio)methyl)-1H-1,2,3-triazol-4-yl)methyl)-quino[3,2-b]benzo[1,4]thiazine] was tested. Which “Relative level of expression, AIFM2 gene” value did it give?
The value was 4.94.
